Data as given in paper PMC11435058, “Synthesis of New Thiazole-Privileged Chalcones as Tubulin Polymerization Inhibitors with Potential Anticancer Activities” (Pharmaceuticals, 2024).
Where two headings read alike, the source gives them in different places.

Tests used:
[1] = test system: SF-539; assay: NCI-60 anticancer screen (SRB; single dose and five doses); details: Homo sapiens, SF-539, 48 h, read-out: Growth Percentage
[2] = test system: MCF7; assay: as above; details: Homo sapiens, MCF7, 48 h, read-out: Growth Percentage
[3] = test system: DU-145; assay: as above; details: Homo sapiens, DU-145, 48 h, read-out: Growth Percentage
[4] = test system: A498; assay: as above; details: Homo sapiens, A498, 48 h, read-out: Growth Percentage, A498; dose of 10 μM
[5] = test system: COLO 205; assay: as above; details: Homo sapiens, COLO 205, 48 h, read-out: Growth Percentage
[6] = test system: CCRF-CEM; assay: NCI-60 anticancer screen (SRB; single dose 10 μM and five doses); details: Homo sapiens, 48 h, read-out: Growth Percentage
[7] = test system: SNB-19; assay: cells; details: Homo sapiens, SNB-19, 48 h, read-out: Growth Percentage
[8] = test system: 60 human tumor cell lines panel; assay: NCI-60 anticancer screen, whole panel (means and ranges over the cell lines); assay type: cell-based; details: Homo sapiens, 48 h, dose of 10 μM
[9] = test system: SK-MEL-5; assay: NCI-60 anticancer screen (SRB; single dose and five doses); details: Homo sapiens, SK-MEL-5, 48 h, read-out: Growth Percentage
[10] = test system: MALME-3M; assay: as above; details: Homo sapiens, 48 h, read-out: Growth Percentage
[11] = test system: M14; assay: as above; details: Homo sapiens, M14, 48 h, read-out: Growth Percentage
[12] = test system: MDA-MB-231/ATCC; assay: as above; details: Homo sapiens, MDA-MB-231, 48 h, read-out: Growth Percentage
[13] = test system: PC-3; assay: as above; details: Homo sapiens, PC-3, 48 h, read-out: Growth Percentage
[14] = test system: SR; assay: as above; details: Homo sapiens, 48 h, read-out: Growth Percentage
[15] = test system: MOLT-4; assay: as above; details: Homo sapiens, MOLT-4, 48 h, read-out: Growth Percentage
[16] = test system: HS 578T; assay: as above; details: Homo sapiens, 48 h, read-out: Growth Percentage
[17] = test system: K-562; assay: as above; details: Homo sapiens, K562, 48 h, read-out: Growth Percentage
[18] = test system: NCI/ADR-RES; assay: as above; details: Homo sapiens, 48 h, read-out: Growth Percentage
[19] = test system: NCI-H522; assay: as above; details: Homo sapiens, NCI-H522, 48 h, read-out: Growth Percentage
[20] = test system: SF-268; assay: as above; details: Homo sapiens, SF-268, 48 h, read-out: Growth Percentage
[21] = test system: RPMI-8226; assay: as above; details: Homo sapiens, RPMI-8226, 48 h, read-out: Growth Percentage
[22] = test system: BT-549; assay: as above; details: Homo sapiens, BT-549, 48 h, read-out: Growth Percentage
[23] = test system: RXF 393; assay: as above; details: Homo sapiens, RXF 393, 48 h, read-out: Growth Percentage
[24] = test system: NCI-H23; assay: as above; details: Homo sapiens, NCI-H23, 48 h, read-out: Growth Percentage
[25] = test system: ACHN; assay: as above; details: Homo sapiens, 48 h, read-out: Growth Percentage
[26] = test system: EKVX; assay: as above; details: Homo sapiens, 48 h, read-out: Growth Percentage
[27] = test system: NCI-H322M; assay: as above; details: Homo sapiens, 48 h, read-out: Growth Percentage
[28] = test system: NCI-H226; assay: as above; details: Homo sapiens, NCI-H226, 48 h, read-out: Growth Percentage
[29] = test system: SN12C; assay: as above; details: Homo sapiens, 48 h, read-out: Growth Percentage

Compound: COc1ccc(/C=C/C(=O)c2sc(=S)[nH]c2C)cc1OC [2o, (E)-3-(3,4-Dimethoxyphenyl)-1-(4-Methyl-2-Thioxo-2,3-Dihydrothiazol-5-yl)Prop-2-En-1-One]
- activity at 10 µM [1]: 29.8%
- activity at 10 µM [2]: 28.9%
- activity at 10 µM [3]: 48.1%
- activity at 10 µM [4]: 126%
- activity at 10 µM [5]: 116%
- activity at 10 µM [6]: 15.5%
- activity at 10 µM [7]: 61.9%
- activity at 10 µM ([8]; mean over the tested cell lines, read-out: Mean growth percentage): 55.1%
- activity at 10 µM ([8]; range over the cell lines, read-out: growth percentages against most of the tested cells (lowest to highest)): -0.42 to 126%
- activity at 10 µM [9]: 63.1%
- activity at 10 µM [10]: 89.6%
- activity at 10 µM [11]: 82.2%
- activity at 10 µM [12]: 58.4%
- activity at 10 µM [13]: 68.9%
- activity at 10 µM [14]: 32.5%
- activity at 10 µM [15]: 73.8%
- activity at 10 µM [16]: 84.7%
- activity at 10 µM [17]: 32.4%
- activity at 10 µM [18]: 26.9%
- activity at 10 µM [19]: 56.8%
- activity at 10 µM [20]: 67.2%
- activity at 10 µM [21]: 18.6%
- activity at 10 µM [22]: 18.9%
- activity at 10 µM [23]: 48.1%
- activity at 10 µM [24]: 65.1%
- activity at 10 µM [25]: 64.9%
- activity at 10 µM [26]: 54.2%
- activity at 10 µM [27]: 63.4%
- activity at 10 µM [28]: 80.5%
- activity at 10 µM [29]: 45.4%
